# Laboratory results published in US10945975B2, “Delaying latency to seizure by combinations of ketone supplements” (priority 2016, dated 2021).
# Marks after values point to notes of the source that are not given here.
# Columns and labels:
# Type in all cases: in vivo, Sprague-Dawley rats
# [1] = Blood glucose levels after removal from the hyperbaric chamber; settings: 10 g/kg, oral gavage; FIG. 7
# Experimental: (§1) The effect of various ketogenic compositions on latency to seizure and seizure severity was tested in a rat model of CNS-OT. Adult male Sprague-Dawley rats (n=60), 250-300 grams (Harlan) were used in the experiments described herein. Rats were given normal chow and water ad libitum and kept on a 12-hour light/dark cycle. […], the rats were assigned to one of 5 treatment groups: control (water), 1,3-butanediol acetoacetate diester (KE, 10 g/kg), KE/2 (KE, 5 g/kg), KE+MCT (1,3-butanediol acetoacetate diester+medium chain triglyceride, 5 g/kg+5 g/kg) and KS+MCT (Na^+Ca^2+BHB 5 g/kg+MCT 5 g/kg). Rats received one dose of the designated ketogenic agent or water by oral gavage. […]
# (§2) Latency to seizure (LS) was calculated from the moment at which the internal and the external chambers reached 5 ATA until the onset of CNS-OT seizures, as identified above. […]
# (§3) Body weights were collected for all rats prior to oral gavage of treatment. Blood concentrations of glucose and beta-hydroxybutyrate (BHB) were determined utilizing a commercially available glucose/ketone monitoring system (Precision Xtra® blood glucose and ketone meter) immediately following removal from the hyperbaric chamber. […]
# [2] = Blood beta-hydroxybutyrate (BHB) levels after removal from the hyperbaric chamber; settings: 5 g/kg, oral gavage
# Experimental: as §1, §2, §3
# rat model of CNS-OT [3] = assay: Seizure severity score in rat model of CNS-OT; settings: 5 g/kg, oral gavage; FIG. 4
# Experimental: (§4) The effect of various ketogenic compositions on latency to seizure and seizure severity was tested in a rat model of CNS-OT. Adult male Sprague-Dawley rats (n=60), 250-300 grams (Harlan) were used in the experiments described herein. Rats were given normal chow and water ad libitum and kept on a 12-hour light/dark cycle. At […], the rats were assigned to one of 5 treatment groups: control (water), 1,3-butanediol acetoacetate diester (KE, 10 g/kg), KE/2 (KE, 5 g/kg), KE+MCT (1,3-butanediol acetoacetate diester+medium chain triglyceride, 5 g/kg+5 g/kg) and KS+MCT (Na^+Ca^2+BHB 5 g/kg+MCT 5 g/kg). Rats received one dose of the designated ketogenic agent or water by oral gavage. Rats were then placed into the hyperbaric chamber 29-30 minutes after treatment, and pressurized to 5 atmospheres as provided below, such that rats were exposed to the hyperbaric conditions at 60 minutes after treatment.
# Rats were placed in the hyperbaric chamber, where the rats were allowed 10 minutes to acclimate in air. Then the plexiglass chamber was filled with pure oxygen, and the rats were allowed another 15 minutes to acclimate. The outer chamber was pressurized using air (capacity ˜205 liters) to minimize the risk of an electrical-induced fire. […] Each experiment was visually monitored via a live camera. […]
# rat model of CNS-OT [4] = assay: Latency to seizure in rat model of CNS-OT (hyperbaric oxygen, 5 ATA); settings: 5 g/kg
# Experimental: as §4
# The hyperbaric system consisted of two main elements: 1) a plexiglass chamber (˜3 liter capacity, Diamond Box, Buxco, Electronics Inc., model PLY3114), that housed the rat during the experiment, and 2) a hyperbaric chamber (Reimers System Inc.—7.8 ATA MWP), that contained the plexiglass chamber and functioned as the pressure vessel. Both chambers were connected to an air compressor (oil-less rotary scroll compressor—model DK6086, Powerex).
# Rats were placed in the hyperbaric chamber, where the rats were allowed 10 minutes to acclimate in air. Then the plexiglass chamber was filled with pure oxygen, and the rats were allowed another 15 minutes to acclimate. The outer chamber was pressurized using air (capacity ˜205 liters) to minimize the risk of an electrical-induced fire. Next, both chambers were compressed to 5 atmospheres absolute (ATA) at a rate of approximately 1 ATA/min. Each experiment was visually monitored via a live camera.
# Latency to seizure (LS) was calculated from the moment at which the internal and the external chambers reached 5 ATA until the onset of CNS-OT seizures, as identified above. After the onset of seizures, the plexiglass chamber was flushed with air to quickly terminate seizure, and both chambers decompressed to sea level. Decompression rate was 1 ATA/min. A small sample of blood was drawn and tested immediately for glucose and beta-hydroxybutyrate levels.
smiles,measurement,setting,value
"CC(=O)CC(=O)OCCC(C)OC(=O)CC(C)=O (centres unmarked) [KE, 1,3-butanediol acetoacetate diester]",Blood glucose levels (in words),[1],highest blood glucose levels
same,Blood BHB levels compared to control,[2]; FIG. 6,about 3 ×
same,"T-test (p), BHB levels vs control",[2]; all collected data,0.0012**
same,"Seizure severity (score 0-3) vs control, in words",rat model of CNS-OT [3],some suppression
same,"T-test (p), latency to time of seizure vs control","rat model of CNS-OT [4]; one dose oral gavage, 5 ATA O2, all collected data",0.256†
same,Latency to seizure compared to control,"rat model of CNS-OT [4]; oral gavage, FIG. 1, all data",about 2 ×
same,"T-test (p), latency to time of seizure vs control","rat model of CNS-OT [4]; oral gavage, outliers excluded (2 standard deviations)",0.023*
same,Latency to seizure compared to control (in words),"rat model of CNS-OT [4]; outliers removed, FIG. 2",significantly increased latency to seizure compared to control
